The source of these data is article PMC7911516, “Investigation of the Factors Responsible for the Poor Oral Bioavailability of Acacetin in Rats: Physicochemical and Biopharmaceutical Aspects” (Pharmaceutics, 2021).

Data set [1] in a line: Distribution coefficients in octanol–water system. Particulars: 25 °C. The class given is physicochemical. The protocol:
Simulated gastric fluid (SGF) consisted of 0.2% (w/v) sodium chloride, 0.32% (w/v) pepsin, and 0.7% (v/v) HCl (final pH = 1.2). Simulated intestinal fluid (SIF) was prepared by dissolving 3 mM sodium taurocholate and 0.1% (w/v) pancreatin in phosphate buffer (final pH = 7.0). The solubility of acacetin was measured by adding excessive amounts of acacetin into glass vials containing 1.5 mL of water, pH 7.4 phosphate buffer, SGF, and SIF. The mixtures were allowed to reach equilibrium in a shaking incubator (FINEPCR, Gyeonggi-do, South Korea) at 500 rpm at 37 °C for 48 h. The samples were centrifuged at 16,000× g for 5 min, and the supernatant was passed through a 0.20-μm syringe filter to remove excess acacetin. Further, the concentration of acacetin in the filtrate was determined using the LC-MS/MS method. The distribution coefficients of acacetin in water (log P) and pH 7.4 phosphate buffer (log D7.4) were determined using an octanol–water system at 25 ± 0.5 °C. […] Finally, the acacetin concentrations in the octanol and water layers were determined using the LC-MS/MS method. The membrane permeability of acacetin and reference compounds (verapamil as a reference for high permeability and ranitidine as a reference for low permeability) was assessed by parallel artificial membrane permeability assay (PAMPA). […] The permeability was calculated using pION PAMPA Explorer ver. […]

Data set [2] can be described thus: Unbound fraction by rapid equilibrium dialysis. It counts as in vitro ADME, rat. The protocol: The fractions of unbound acacetin in plasma (fuP), microsomes (fuMIC), SGF (fuSGF), and SIF(fuSIF) were measured using a rapid equilibrium dialysis device (Thermo Fisher Scientific, Inc., Waltham, MA, USA) as previously described with slight modifications. Briefly, 0.2 mL of the matrix spiked with acacetin (10 μM) was placed into the “sample” chamber, and 0.4 mL of PBS was placed into the adjacent “buffer” chamber. The fractions of unbound acacetin were calculated as the concentration ratio between the two chambers. The blood-to-plasma concentration ratio (RB) of acacetin was determined as described previously. Briefly, 1-mL blood spiked with acacetin (1 μM) was incubated at 37 °C for 30 min. The blood sample was centrifuged at 2000× g for 5 min to prepare the plasma sample. The concentrations of acacetin in the aforementioned plasma and buffer samples were measured using the LC-MS/MS method.

The nature of data set [3]: Stability in phosphate buffers, plasma, RLM, SGF and SIF. The class given is physicochemical. As to conditions: for Initially spiked amount remaining after 24 h: 10 μM. The protocol:
The stability of acacetin was determined in several matrices such as phosphate buffers (pH 1.0, 3.0, 5.0, 7.0, 9.0, 11.0, and 13.0), plasma, RLM, SGF, and SIF. The samples spiked with acacetin (10 μM) were incubated at 37 °C, and 120 μL aliquots of the samples were collected at 0, 15, 30, 60, 120, 180, 240, 360, 420, 600, and 1440 min. The collected samples were diluted with acetonitrile to obtain a proper concentration and analyzed by the LC-MS/MS method.

The nature of data set [4]: Disappearance in rat plasma and tissue S9 fractions. It counts as in vitro ADME. Particulars: 10 μM, 5 min, S9 0.5 mg/mL, NADPH or UDPGA/alamethicin. As for the experimental part: The rat gut, spleen, kidney, liver, heart, brain, and lung were excised after cervical dislocation, rinsed with cold saline, blotted dry with tissue paper, and weighed. Each tissue sample was homogenized using a homogenizer (Ultra-Turrax T10 basi; IKA-Werke GmbH & Co. KG, Staufen, Germany) in cold 0.25 M sucrose solution. The homogenate was centrifuged at 9000× g for 30 min, and the supernatant fraction was stored at −80 °C until further use. The reaction mixture consisted of substrate, plasma, or tissue S9 fractions (protein concentration: 0.5 mg/mL) and NADPH (1 mM) or UDPGA (2 mM) in Tris buffer (100 mM; pH 7.4). After preincubation at 37 °C for 5 min, acacetin (final concentration: 10 μM) was added to initiate the enzyme reaction. After 5 min of incubation with shaking at 37 °C, the reaction was terminated by mixing the reaction mixture with acetonitrile containing IS (volume four times that of the reaction mixture). After vortex-mixing and centrifugation at 16,000× g for 10 min, 100 μL of the supernatant was obtained and stored at −80 °C until further LC-MS/MS assay.

Details of data set [5]: method as in doi:10.5958/0974-360X.2019.00624.3. Particulars: oral administration at 10 mg/kg; cited from earlier work.
For a further data set, the system named is Caco-2 cell. The arrangement: method as in PMID 22292790. As to conditions: cited from earlier work.

Like-named read-outs stand apart in the source and are kept apart here.

As usually defined, the logP is a log measure of how a compound divides between an organic and an aqueous phase. A higher logP goes with higher lipophilicity. Usually fraction unbound stands for the share of the substance not bound to proteins or other matrix. The term Cmax denotes the peak of the concentration-time curve. Usually bioavailability stands for dose-corrected exposure relative to a reference, in per cent.

With `COc1ccc(-c2cc(=O)c3c(O)cc(O)cc3o2)cc1` [acacetin, Acacetin], the logD in data set [1] (n-octanol/pH 7.4 phosphate buffer, pH 7.4, n-octanol/pH 7.4 phosphate buffer, read-out: Log D7.4) was over 3. The molecule also returned a log partition coefficient (logP) in data set [1] (octanol/water, n-octanol/water) of over 3. The fraction unbound at 10 μM in data set [2] (SGF, 10 μM, read-out: fuSGF (fraction unbound in SGF)) was 0.822 ± 0.026; in data set [2] (SIF, 10 μM, read-out: fuSIF (fraction unbound in SIF)) it was 0.714 ± 0.009; in data set [2] (Sprague-Dawley, rat, liver microsomes (RLM), RLM, 10 μM, read-out: fuMIC (fraction unbound in microsomes)), 0.302 ± 0.021; in data set [2] (Sprague-Dawley, rat, plasma and liver microsomes (RLM), range over plasma and RLM, read-out: Unbound fraction in plasma and RLM), 0.00901 to 0.317; in data set [2] (Sprague-Dawley, rat plasma, 10 μM, read-out: fuP (fraction unbound in plasma)), 0.0102 ± 0.0011; in data set [2] (range over SGF and SIF, read-out: Unbound fraction in SGF and SIF), 0.707 to 0.849. Besides, the “Stability (stable = more than 85% remaining)” value in data set [3] (SGF and SIF) is listed as “unstable”; in data set [3] (acidic and neutral conditions (pH 1–7)), “unstable”; in data set [3] (basic conditions (pH 9, 11, 13)), “stable”; in data set [3] (plasma and RLM, absence of NADPH and UDPGA/alamethicin) it was “stable”. Further, the “Initially spiked amount remaining after 24 h” value is 27.5–62.0% in data set [3] (SGF and SIF, 37 °C); 16.1–35.9% in data set [3] (phosphate buffers, pH range 1–7, 37 °C). Moreover, the “Remaining after 24 h” value in data set [3] (pH 7 phosphate buffer and simulated GI fluids (as worded in abstract)) was 27.5–62.0%. Further, the “Tissue-dependent metabolizing activity (disappearance rate)” value in data set [4] is “the liver exhibited significantly higher metabolizing activity than all the tested tissues”. Also, in data set [5], the Cmax is 1668 ng/mL. Besides, in data set [5], the bioavailability is 84%. Moreover, the Caco-2 cell permeability in the data set on Caco-2 cell is given as 2.81 × 10^–6 cm/s.
